Experimental data as given in article PMC5361079 (Scientific Reports, 2017).
Like-named read-outs stand apart in the source and are kept apart here.

Assays:
[1] = Cardiac tissue concentrations in anesthetized guinea pigs; format: in vivo, guinea pig; details: end of IV infusions, prodrug alone or + amiodarone
[2] = test system: conscious, male rhesus monkeys; test: Heart rate, MBP and ECG intervals in conscious, restrained rhesus monkeys; format: in vivo, rhesus monkey
Procedure: (§1) Arterial BP and ECG waveforms from four chronically-instrumented male, rhesus monkeys (8-16 kg at time of study, approximately 5–8 years of age), were continuously recorded (Notocord-hem™ v 4.3.0.67) and analyzed as described. Prior to study, animals were acclimated to the restraint chair and the laboratory environment over multiple sessions. […] MNI-2 was formulated in 30% Captisol®. […] Samples were placed on wet ice, centrifuged at 4 °C and plasma removed and stored at −70 °C until analysis of concentration of test agents and any metabolites of interest.

hiPSC-CM syncytia = test: Spontaneous FP rate and IMP amplitude/beating rate in hiPSC-CM syncytia (RTCA CardioECR / RTCA Cardio); format: cell-based, human; details: for Effect on FP rate / Effect on IMP amplitude: prodrug co-administered with 0.3 μM amiodarone, steady state (4 h), spontaneously beating hiPSC-CM syncytia
Procedure: hiPSC-CMs (iCells®) from Cellular Dynamics International (CDI, Madison, WI, USA) were seeded onto 48-well CardioECR or 96-well Cardio E-Plates® (ACEA Biosciences Inc., San Diego, CA, USA) coated with 10 μg/mL fibronectin (Sigma Aldrich, Catalog# F1141) at 30,000 cells/well, following manufacturer’s recommendations. Cells were maintained in culture (37 °C, 5% CO2) for a period of 14 days with iCell Maintenance® media (CDI, Madison, WI, USA) exchanged every 2–3 days. Compound addition was only performed on or after Day 14 following cell seeding.
Compound stock solutions were prepared in 100% DMSO or H2O. On the day of compound addition, the media was exchanged with fresh iCell Maintenance® media and allowed to equilibrate for at least 3 h in the incubator. The plates were read on an xCELLigence® RTCA CardioECR or RTCA Cardio (ACEA Biosciences Inc., San Diego, CA, USA). Control pre-reads to establish a baseline were recorded for at least 45 minutes (4 reads at 15-min intervals) prior to compound addition. The compound stock solutions were diluted into iCell Maintenance® media and quickly added to the plate. The plate was continuously monitored for at least 18 h following compound addition. IMP data were sampled at 12 ms (83 Hz), while FP rate data were collected at 0.1 ms (10 KHz). Attachment, growth and viability of syncytia were monitored by means of the baseline IMP signal, as previously described. IMP and FP signals were only interpreted if the baseline IMP was maintained throughout the measurement period (usually ≤18 hrs) at ≥70% of the value before test compound application (pre-read value).

[3] = test system: anesthetized, male Dunkin-Hartley guinea pigs; test: Heart rate in anesthetized guinea pigs, IV infusion; format: in vivo, guinea pig
Source text: Adult, male Dunkin-Hartley guinea pigs (350–550 g) were anesthetized and instrumented as previously described[7][29].

[4] = Plasma concentration in conscious rhesus monkeys; details: at the end of the MNI-2+amiodarone experiment
Procedure: as §1

[5] = Plasma concentration in anesthetized guinea pigs; details: IV
Source text: Adult, male Dunkin-Hartley guinea pigs (350–550 g) were anesthetized and instrumented as previously described.

hiPSC-CMs = test: Intracellular prodrug, cleavage intermediate metabolite and NTP metabolite concentrations in hiPSC-CMs; format: in vitro ADME, human
Procedure: Approximately 18 h before dosing, iCell hiPSC-CMs were switched to iCell cardiomyocyte maintenance media free of Penicillin/Streptomycin. […] […] After the corresponding treatment, cells were washed 2x with 200 μL of ice-cold magnesium- and calcium-free PBS buffer. Cells were then lysed in 100 μL of ice-cold lysis solution (70/30 methanol/water containing 20 mM EDTA and 20 mM EGTA, pH 8) by pipetting up and down 5 times. Plates were sealed and transferred on dry ice for determination of prodrug, cleavage intermediate metabolite, and NTP metabolite concentrations. Intracellular prodrug concentrations were measured using a reversed phase HPLC- high resolution mass spectrometry method. A dimethylhexylamine based ion-pairing HPLC-MS/MS method was used to measure intracellular cleavage intermediate metabolite and NTP metabolite concentrations. Intracellular concentrations (pmol/million cells) of prodrug, cleavage intermediate metabolite, and NTP metabolite were quantitated against calibration standards of the same analytes prepared from control iCell hiPSC-CM lysates.
For prodrug analyses, full scan high resolution mass spectrometry data was collected using an Exactive™ Orbitrap mass spectrometer with an electrospray source operated in the positive ion mode. Prodrug chromatograms were extracted from full scan high resolution mass spectrometry data for the masses indicated in Supplementary Table 5. Absence of endogenous interference(s) was verified by extracting the same ion from full scan high resolution mass spectrometry chromatograms of unspiked control cell lysates. For the cleavage intermediate metabolite and NTP metabolite an electrospray MS/MS method run on a SCIEX API 4000 mass spectrometer with turboV ionspray source was used in negative ion mode monitoring the transitions indicated in Supplementary Table 5. Absence of endogenous interference(s) was verified by monitoring of the same MRM transitions for unspiked control cell lysates. Measured intracellular prodrug, cleavage intermediate metabolite, and NTP metabolite concentrations (in pmol/million cells units) were tabulated (Table 2).

[6] = test system: anesthetized, male Dunkin-Hartley guinea pigs; details: cumulative IV infusion dose 2.5 mg/kg amiodarone alone; cited from earlier work
[7] = anesthetized guinea pigs, cited from earlier work
[8] = hiPSC-CMs, 10 μM prodrug + 0.3 μM amiodarone, 4 Hours
[9] = hiPSC-CMs, 10 μM prodrug + 0.3 μM amiodarone, 4 Hours, BLOQ = below 17 pmol/million cells
[10] = hiPSC-CMs, 10 μM prodrug + 0.3 μM amiodarone, 30 Min
[11] = hiPSC-CMs, 10 μM prodrug + 0.3 μM amiodarone, 30 Min, BLOQ = below 17 pmol/million cells
[12] = hiPSC-CMs, 10 μM prodrug alone, 4 Hours
[13] = hiPSC-CMs, 10 μM prodrug alone, 4 Hours, BLOQ = below 17 pmol/million cells
[14] = hiPSC-CMs, 10 μM prodrug alone, 30 Min
[15] = hiPSC-CMs, 10 μM prodrug alone, 30 Min, BLOQ = below 17 pmol/million cells
[16] = 10 μM prodrug in the presence of 0.3 μM amiodarone
[17] = 30 Min, SOF-3 mM, SOF + A (0.3 µM amiodarone) + Ebel, LOQ=17

## CC(C)OC(=O)[C@@H](C)NP(=O)(OC[C@H]1O[C@@H](n2ccc(=O)[nH]c2=O)[C@](C)(F)[C@@H]1O)Oc1ccccc1 (stereo partly drawn) [MNI-2, isopropyl (2R)-2-[[[(2R,3R,4R,5R)-5-(2,4-dioxopyrimidin-1-yl)-4-fluoro-3-hydroxy-4-methyl-tetrahydrofuran-2-yl]methoxy-phenoxy-phosphoryl]amino]propanoate]
[1]
  Cleavage intermediate metabolite and NTP metabolite in cardiac tissue: did not produce detectable levels
[2]; IV infusion of MNI-2 (4, then 2 mg/kg/30 min), alone or after prior administration of amiodarone (3 mg/kg/30 min)
  Effect on HR: no effect
[2]; IV infusion of MNI-2 alone or after pretreatment with amiodarone
  MBP or PR, QRS, QT ECG interval changes: did not result in MBP or PR, QRS, QT ECG interval changes
hiPSC-CM syncytia; 10 μM prodrug combined with 0.3 μM amiodarone, up to 18 h
  Effects on IMP-measured beating rate and IMP amplitude: failed to evoke changes over each drug alone
hiPSC-CM syncytia
  Effect on FP rate: lack of effects
  Effect on IMP amplitude: lack of effects
[3]; coadministration of 10 mg/kg MNI-2 and 2.5 mg/kg amiodarone IV (cumulative)
  HR, % change from baseline: −9%
[3]; cumulative IV infusion dose 10 mg/kg MNI-2 alone
  HR, % change from baseline: −3%
[4]
  Plasma concentration: 3048 ± 413 ng/mL
[5]; agent + vehicle, End of Infusion 1
  Plasma concentration of parent: 4.2 ± 2.1 µM
[5]; agent + vehicle, End of Infusion 2
  Plasma concentration of parent: 4.2 ± 0.9 µM
[5]; agent + vehicle, End of Infusion 3
  Plasma concentration of parent: 3.9 ± 0.1 µM
[5]; agent + vehicle, End of Infusion 4
  Plasma concentration of parent: 3.7 ± 1.0 µM
[5]; treatment MNI-2+AMIO, End of Infusion 1
  Plasma concentration of parent: 3.0 ± 0.8 µM
[5]; treatment MNI-2+AMIO, End of Infusion 2
  Plasma concentration of parent: 3.5 ± 1.0 µM
[5]; treatment MNI-2+AMIO, End of Infusion 3
  Plasma concentration of parent: 3.7 ± 0.6 µM
[5]; treatment MNI-2+AMIO, End of Infusion 4
  Plasma concentration of parent: 3.7 ± 0.9 µM
hiPSC-CMs; following application of prodrug (10 μM) ± amiodarone
  Detection of cleavage intermediate metabolite or NTP in hiPSC-CMs: no measurable concentrations
hiPSC-CMs; [8]
  Intracellular Concentration, Prodrug: 61.0 ± 3.3 pmol/million cells
hiPSC-CMs; [9]
  Intracellular Concentration, Cleavage Intermediate Metabolite: BLOQ
  Intracellular Concentration, NTP Metabolite: BLOQ
hiPSC-CMs; [10]
  Intracellular Concentration, Prodrug: 54.8 ± 3.3 pmol/million cells
hiPSC-CMs; [11]
  Intracellular Concentration, Cleavage Intermediate Metabolite: BLOQ
  Intracellular Concentration, NTP Metabolite: BLOQ
hiPSC-CMs; [12]
  Intracellular Concentration, Prodrug: 173.0 ± 133.3 pmol/million cells
hiPSC-CMs; [13]
  Intracellular Concentration, Cleavage Intermediate Metabolite: BLOQ
  Intracellular Concentration, NTP Metabolite: BLOQ
hiPSC-CMs; [14]
  Intracellular Concentration, Prodrug: 53.5 ± 4.5 pmol/million cells
hiPSC-CMs; [15]
  Intracellular Concentration, Cleavage Intermediate Metabolite: BLOQ
  Intracellular Concentration, NTP Metabolite: BLOQ

## CCCCc1oc2ccccc2c1C(=O)c1cc(I)c(OCCN(CC)CC)c(I)c1 [amiodarone]
[6]
  HR, % change from baseline: −7%

## CC(C)OC(=O)[C@H](C)NP(=O)(OC[C@H]1O[C@@H](n2ccc(=O)[nH]c2=O)[C@](C)(F)[C@@H]1O)Oc1ccccc1 (stereo partly drawn) [sofosbuvir, isopropyl (2S)-2-[[[(2R,3R,4R,5R)-5-(2,4-dioxopyrimidin-1-yl)-4-fluoro-3-hydroxy-4-methyl-tetrahydrofuran-2-yl]methoxy-phenoxy-phosphoryl]amino]propanoate, reference compound]
[1]
  Cleavage intermediate metabolite and NTP metabolite in cardiac tissue: present
hiPSC-CM syncytia; [16]
  Change in IMP amplitude (RTCA Cardio): −97% ± 2%
  Change in beating rate (IMP-measured, RTCA Cardio): +146% ± 11%
hiPSC-CM syncytia; 11 μM sofosbuvir co-applied with 0.3 μM amiodarone
  IMP amplitude: below the limit of detection
hiPSC-CM syncytia
  Effect on FP rate: Concentration-dependent, steady-state effects
  Effect on IMP amplitude: Concentration-dependent, steady-state effects
hiPSC-CMs; 4 Hours, SOF-10 μM, SOF
  Intracellular Concentration, Sofosbuvir (Prodrug): 66.9 ± 6.8 pmol/million cells
hiPSC-CMs; 4 Hours, SOF-3 mM, SOF
  Intracellular Concentration, Sofosbuvir (Prodrug): 19.6 ± 5.8 pmol/million cells
hiPSC-CMs; 4 Hours, SOF-3 mM, SOF + A (0.3 µM amiodarone) + Ebel
  Intracellular Concentration, Sofosbuvir (Prodrug): 46.9 ± 8.9 pmol/million cells
hiPSC-CMs; 4 Hours, SOF-3 mM, SOF + A (0.3 µM amiodarone) + Ebel, LOQ=17
  Intracellular Concentration, NTP Metabolite: B LOQ
hiPSC-CMs; 4 Hours, SOF-3 mM, SOF, LOQ=17
  Intracellular Concentration, NTP Metabolite: B LOQ
hiPSC-CMs; 4 Hours, SOF-10 mM, SOF + A (0.3 µM amiodarone) + Ebel, LOQ=17
  Intracellular Concentration, NTP Metabolite: B LOQ
hiPSC-CMs; 30 Min, SOF-10 μM, SOF + A (0.3 µM amiodarone) + Ebel
  Intracellular Concentration, Sofosbuvir (Prodrug): 53.4 ± 9.5 pmol/million cells
hiPSC-CMs; 30 Min, SOF-10 μM, SOF + A (0.3 µM amiodarone) + Ebel, LOQ=17
  Intracellular Concentration, Cleavage Intermediate Metabolite: B LOQ
hiPSC-CMs; 30 Min, SOF-3 mM, SOF
  Intracellular Concentration, Sofosbuvir (Prodrug): 19.5 ± 0.9 pmol/million cells
hiPSC-CMs; [17]
  Intracellular Concentration, Cleavage Intermediate Metabolite: B LOQ
  Intracellular Concentration, NTP Metabolite: B LOQ
hiPSC-CMs; 30 Min, SOF-3 mM, SOF, LOQ=17
  Intracellular Concentration, NTP Metabolite: B LOQ
hiPSC-CMs; 30 Min, SOF-10 mM, SOF + A (0.3 µM amiodarone) + Ebel, LOQ=17
  Intracellular Concentration, NTP Metabolite: B LOQ
hiPSC-CMs; 30 Min, SOF-10 mM, SOF, LOQ=17
  Intracellular Concentration, NTP Metabolite: B LOQ
hiPSC-CMs; SOF-10 mM, 4 Hours, 2a (SAR164653) 50 mM, LOQ=17
  Intracellular Concentration, NTP Metabolite: B LOQ
hiPSC-CMs; SOF-10 mM, 4 Hours, 2a (SAR164653) 100 mM, LOQ=17
  Intracellular Concentration, NTP Metabolite: B LOQ
hiPSC-CMs; SOF-10 mM, 30 Min, 2a (SAR164653) 0 mM, LOQ=17
  Intracellular Concentration, NTP Metabolite: B LOQ
hiPSC-CMs; SOF-10 mM, 30 Min, 2a (SAR164653) 1 mM, LOQ=17
  Intracellular Concentration, NTP Metabolite: B LOQ
hiPSC-CMs; SOF-10 mM, 30 Min, 2a (SAR164653) 10 mM, LOQ=17
  Intracellular Concentration, NTP Metabolite: B LOQ
hiPSC-CMs; SOF-10 mM, 30 Min, 2a (SAR164653) 50 mM, LOQ=17
  Intracellular Concentration, NTP Metabolite: B LOQ
hiPSC-CMs; SOF-10 mM, 30 Min, 2a (SAR164653) 100 mM, LOQ=17
  Intracellular Concentration, NTP Metabolite: B LOQ
hiPSC-CMs; [8]
  Intracellular Concentration, Prodrug: 58.4 ± 6.0 pmol/million cells
hiPSC-CMs; [10]
  Intracellular Concentration, Prodrug: 45.6 ± 2.0 pmol/million cells
hiPSC-CMs; [11]
  Intracellular Concentration, NTP Metabolite: BLOQ
hiPSC-CMs; [12]
  Intracellular Concentration, Prodrug: 50.1 ± 2.1 pmol/million cells
hiPSC-CMs; [14]
  Intracellular Concentration, Prodrug: 46.7 ± 3.7 pmol/million cells
hiPSC-CMs; [15]
  Intracellular Concentration, NTP Metabolite: BLOQ*
[7]; cumulative IV sofosbuvir + amiodarone
  Cardiac sofosbuvir concentration: ~ 6 nmol/g tissue
[7]; cumulative IV sofosbuvir alone
  Cardiac sofosbuvir concentration: ~ 8 nmol/g tissue
